# Measured values: ChEMBL document CHEMBL5385919, “A Survey of Recently Discovered Naturally Occurring Organohalogen Compounds” (J Nat Prod, 2024)
# Numbered stars: 1 amine (or outer) side, 2 acyl side, 3 side chain; on linkers, the order of the positions; unused ones are H or OH. Square brackets hold non-standard residues; d marks the D form. Peptide text beside a SMILES is read from it. X1 = CC(C)(O)/C=C/[C@]12C[C@@H](C(=O)[*:2])N([*:1])[C@@H]1Nc1ccc(Br)cc12
# Experiments:
# [1] = test system: HCT-8; experiment: Cytotoxicity against human HCT-8 cells assessed as inhibition of cell growth incubated for 48 hrs by MTT assay; format: functional, cell-based; details: HCT-8, 48 h
# [2] = test system: MH60; experiment: Cytotoxicity in mouse MH60 cells assessed as inhibition of cell growth; format: functional, cell-based
# [3] = test system: Candida albicans; experiment: Antifungal activity against Candida albicans assessed as reduction in […] growth; format: functional
# [4] = test system: MDA-MB-231; experiment: Growth inhibition of human MDA-MB-231 cells assessed inhibition of cell growth; format: functional
# [5] = test system: Mycolicibacterium smegmatis; experiment: Antibacterial activity against Mycolicibacterium smegmatis assessed as reduction in bacterial growth; format: functional
# [6] = test system: Staphylococcus aureus; experiment: Antibacterial activity against methicillin resistant Staphylococcus aureus assessed as reduction in bacterial growth; format: functional, organism-based
# [7] = test system: Bacillus mycoides; experiment: Antibacterial activity against Bacillus mycoides assessed as reduction in bacterial growth; format: functional
# [8] = test system: Staphylococcus aureus; experiment: Antibacterial activity against Staphylococcus aureus FDA 209P JC-1 assessed as reduction in bacterial growth; format: functional
# [9] = test system: Bacillus subtilis; experiment: Antibacterial activity against Bacillus subtilis ATCC 6633 assessed as reduction in bacterial growth; format: functional
# [10] = test system: HeLa; experiment: Cytotoxicity against human HeLa cells assessed as inhibition of cell growth; format: functional, cell-based
# [11] = test system: Vibrio harveyi; experiment: Antimicrobial activity against Vibrio harveyi assessed as bacterial growth inhibition incubated for 12 hrs by serial dilution analysis; format: functional
# [12] = test system: Prorocentrum minimum; experiment: Antimicrobial activity against Prorocentrum minimum assessed as […] growth inhibition; format: functional
# [13] = test system: RAW264.7; experiment: Antiinflammatory activity in mouse RAW264.7 cells assessed as inhibition of LPS-induced NO production pretreated with compound for 1 hr followed by LPS-induction and measured after 48 hrs by microplate reader analysis; format: functional, cell-based
# [14] = test system: Vibrio harveyi; experiment: Antimicrobial activity against Vibrio harveyi assessed as bacterial growth inhibition; format: functional
# [15] = Antioxidant activity assessed as DPPH radical scavenging activity; format: functional
# [16] = test system: Kocuria rhizophila; experiment: Antibacterial activity against Kocuria rhizophila KCTC 1915 assessed as reduction in bacterial growth incubated for 24 hrs by Mueller-Hinton broth based assay; format: functional
# [17] = test system: Bacillus subtilis; experiment: Antibacterial activity against Bacillus subtilis KCTC 1021 assessed as reduction in bacterial growth incubated for 24 hrs by Mueller-Hinton broth based assay; format: functional
# [18] = test system: Staphylococcus aureus; experiment: Antibacterial activity against Staphylococcus aureus KCTC 1927 assessed as reduction in bacterial growth incubated for 24 hrs by Mueller-Hinton broth based assay; format: functional
# [19] = test system: Staphylococcus aureus; experiment: Antibacterial activity against Staphylococcus aureus assessed as reduction in bacterial growth; format: functional
# [20] = test system: Bacillus cereus; experiment: Antibacterial activity against Bacillus cereus assessed as reduction in bacterial growth; format: functional
# [21] = test system: Micrococcus luteus; experiment: Antimicrobial activity against Micrococcus luteus assessed as bacterial growth inhibition; format: functional
# [22] = test system: ACHN; experiment: Growth inhibition of human ACHN cells assessed as cell viability incubated for 48 hrs by SRB assay; format: functional; details: pooled result: one value given for 6 cell lines, strains, targets or settings
# [23] = test system: Bacillus subtilis; experiment: Antibacterial activity against Bacillus subtilis assessed as reduction in bacterial growth; format: functional
# [24] = test system: HepG2; experiment: Cytotoxicity against human HepG2 cells assessed as inhibition of cell growth; format: functional, cell-based
# [25] = test system: HL-60; experiment: Cytotoxicity against human HL-60 cells assessed as inhibition of cell growth; format: functional, cell-based
# [26] = test system: Escherichia coli; experiment: Antibacterial activity against Escherichia coli assessed as reduction in bacterial growth; format: functional
# [27] = test system: Trypanosoma brucei rhodesiense; experiment: Antitrypanosomal activity against Trypanosoma brucei rhodesiense; format: functional, organism-based
# [28] = test system: MOLT-4; experiment: Cytotoxicity against human MOLT-4 cells assessed as inhibition of cell growth incubated for 24 hrs by MTT assay; format: functional, cell-based; details: MOLT-4, 24 h
compound,measurement,setting,value
C=C(COC(=O)Cc1ccc(O)c(Cl)c1)[C@@]12O[C@@H]1[C@@]1(C)C(=CC2=O)CC[C@@H](O)[C@@H]1C,IC50,[1],7.3 µM
CC(C)=CCC1OC1(C)C1(O)C(O)C(=O)CC[C@]1(O)CCl (stereo partly drawn),IC50,[2],7.5 µM
O=C1NC(=O)c2c1c1c3cc(Cl)ccc3[nH]c1c1[nH]c3ccc(Cl)cc3c21,MIC,[3],1 µg/mL
CCCC[C@H]1CCC[C@@H](Cl)C[C@@H](OC)c2cc(O)c(c(O)c2)[C@@H](CC)CCC[C@@H](Cl)C[C@@H](OC)c2cc(O)c1c(O)c2,GI50,[4],0.72 µM
COc1ccc2[nH]c3c(O)cccc3c2c1Cl,MIC,[5],32 µg/mL
same,MIC,[6],32 µg/mL
same,MIC,[7],32 µg/mL
same,MIC,[3],32 µg/mL
CO[C@H]1C[C@@H](O)[C@H](OC)c2oc3c4c5c(c(O)c3c(=O)c21)-c1c(cc2c(Cl)c(C)n(N)c(=O)c2c1O)C[C@H]5OCO4,MIC,[8],0.001 µg/mL
same,MIC,[9],0.001 µg/mL
same,IC50,[10],40 pM
COc1cc(OC)c2c(O)c3c(=O)cc(C)oc3c(-c3c(OC)cc4c(I)c(O)c5c(=O)cc(C)oc5c4c3OC)c2c1,MIC,[11],8 µg/mL
same,MIC,[12],0.61 µg/mL
C#C/C=C\CC(Br)[C@@H]1C[C@@H](OC(C)=O)[C@H](CCCCCC)O1 (stereo partly drawn),IC50,[13],3.69 µM
COC(=O)/C=C/C(=O)N[C@H](Cc1ccc(O)c(Cl)c1)C(=O)OC,MIC,[14],16 µg/mL
O=Cc1cc(Br)c(O)c(O)c1Cc1ccc(O)c(Br)c1,IC50,[15],3.5 µM
CC(C)=C(C/C=C(\C)CC[C@@H](Cl)C(C)(C)Cl)C[C@@]1(O)C(=O)c2cc(O)cc(O)c2C(=O)[C@@]1(C)Cl,MIC,[16],1 µg/mL
same,MIC,[17],1 µg/mL
same,MIC,[18],1 µg/mL
C/C=C(\C)c1c(Cl)c(O)c(C)c2c1Oc1c(C)c(O)c(Cl)c(/C(C)=C/C)c1C(=O)O2,MIC,[19],1.56 µg/mL
same,MIC,[20],1.56 µg/mL
O=C1Oc2cc(Br)c(O)c(Br)c2/C1=C/c1cc(Br)c(O)c(Br)c1,MIC,[19],5.2 µM
CCCC[C@@H](Cl)CCC[C@@H](Cl)C[C@@H](OC)c1cc(O)c([C@@H](CCCC)CCC[C@@H](Cl)C[C@@H](OC)c2cc(O)cc(O)c2)c(O)c1,GI50,[4],0.72 µM
CC(C)Cc1c(O)cc2oc3cc(Cl)cn3c(=O)c2c1O,MIC,[21],0.7 µM
same,MIC,[19],0.7 µM
same,GI50,[22],4.9 µM
same,MIC,[23],0.7 µM
CC(C)c1cc(=O)c2c(cc(O)c3c(=O)c4c(O)c(Br)ccc4c(=O)c32)c1=O,IC50,[6],0.098 µg/mL
same,IC50,[24],9.3 µM
CC(C)[C@@]1(O)/C=C/[C@](C)(O)CC[C@H](Cl)[C@@]2(C)CC[C@H](O2)[C@](C)(O)CC1,IC50,[25],3.67 µM
C[C@]12NC(=N)N[C@@]1(O)c1nc(-c3c[nH]c4ccccc34)cnc1-c1c2[nH]c2cc(Br)ccc12,MIC,[26],37.5 µM
same,MIC,[23],18.5 µM
CC(=O)O[C@@H](C/C=C/Cl)[C@@H](C)C(=O)/C=C/CCNC(=O)CC/C=C/C(C)(C)C,IC50,[27],1.2 µM
CC[C@H](C)[C@H]1O[C@H](CC(C)=O)O[C@@]1(C)/C=C/C1=CC2=C(Cl)C(=O)[C@](C)(O)[C@H](OC(C)=O)[C@H]2CO1,MIC,[6],25 µg/mL
CCCC[C@H]1CCCCC[C@@H](OC)c2cc(O)c(c(O)c2)[C@@H](CCCC)CCC[C@@H](Cl)C[C@@H](OC)c2cc(O)c1c(O)c2,GI50,[4],0.72 µM
CC(C)C[C@@H]1NC(=O)[C@@H]2C[C@]3(/C=C/C(C)(C)O)c4cc(Br)ccc4N[C@H]3N2C(=O)[C@@H]2CCCN2C(=O)[C@H](C(C)C)NC(=O)[C@@H]2CCCN2C(=O)[C@H](CC(C)C)NC(=O)[C@@H]2CCCN2C(=O)[C@H](CC(C)C)NC(=O)[C@@H]2CCCN2C(=O)[C@H](Cc2ccccc2)NC1=O (cyclo(FPLPLPVP[X1]L)),IC50,[28],4.7 µM
O=C(N[C@H](CO)[C@H](O)c1ccc([N+](=O)[O-])cc1)C(Cl)Cl [CHLORAMPHENICOL],MIC,[11],2 µg/mL
O=C(O)c1cn(C2CC2)c2cc(N3CCNCC3)c(F)cc2c1=O [CIPROFLOXACIN],MIC,[26],0.025 µM
